According to USRE37781E1, “Substituted cyclic carbonyls and derivatives thereof useful as retroviral protease inhibitors” (DuPont Pharmaceuticals Company, priority 1991, dated 2002):
Read-outs that look alike come from different tables or passages of the source.

Tests used:
[1] = target: single-chain tethered dimer of HIV protease (Human immunodeficiency virus 1, UniProt P04585); experiment: biochemical; format: biochemical; design: fused on or other part: A second copy of the same protease unit is joined to the first by a short peptide tether, giving one polypeptide
HIV-1 (RF) in MT-2 cells = experiment: microbe, parasite or virus in culture; format: cell-based
Summary of the method: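 Read-out: gag and pol viral RNA captured by 5′-biotinylated oligonucleotides on streptavidin-coated wells, detected with alkaline phosphatase-linked reporter oligonucleotides, calibrated against BH10 in vitro transcripts. Virus stocks (RF, MN, IIIB) come from H9 cultures; MT-2 host cells kept in RPMI 1640, 5% FCS.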

[2] = Table 2u (second printing), HPLC method, read-out: K1 (HPLC)
[3] = Table 2u, HPLC method, read-out: K1 (HPLC)
[4] = read-out: Ki (HPLC), Table 1e, cells marked (HPLC)
[5] = Human immunodeficiency virus 1, MT2, Table 1e, read-out: IC90
[6] = read-out: HPLC K1, Table 2d, class symbols
[7] = Human immunodeficiency virus 1, MT2, 48 h, Table 2d, class symbols, read-out: IC90

CN(C)P1(=O)N(CC2CC2)[C@H](Cc2ccccc2)[C@H](O)[C@@H](O)[C@@H](Cc2ccccc2)N1CC1CC1 (stereo partly shown) [28G]
Ki ([1]; Table 2r, read-out: Ki HPLC): > 1 µM
IC90 (HIV-1 (RF) in MT-2 cells; Table 2r): ++ (++=10 to 100 μg/mL)

COP1(=O)N(Cc2ccc(CO)cc2)[C@H](Cc2ccccc2)[C@H](O)[C@@H](O)[C@@H](Cc2ccccc2)N1Cc1ccc(CO)cc1 (stereo partly shown) [28H]
Ki ([1]; Table 2r, read-out: Ki HPLC): 0.01 to 1 µM
IC90 (HIV-1 (RF) in MT-2 cells; Table 2r): ++ (++=10 to 100 μg/mL)

CN(C)P1(=O)N(Cc2ccc(CO)cc2)[C@H](Cc2ccccc2)[C@H](O)[C@@H](O)[C@@H](Cc2ccccc2)N1Cc1ccc(CO)cc1 (stereo partly shown) [28I]
Ki ([1]; Table 2r, read-out: Ki HPLC): 0.01 to 1 µM
IC90 (HIV-1 (RF) in MT-2 cells; Table 2r): ++ (++=10 to 100 μg/mL)

O=P1(Oc2ccccc2)N(Cc2cccc(CO)c2)[C@H](Cc2ccccc2)[C@H](O)[C@@H](O)[C@@H](Cc2ccccc2)N1Cc1cccc(CO)c1 (stereo partly shown) [28J]
Ki ([1]; Table 2r, read-out: Ki HPLC): 0.01 to 1 µM
IC90 (HIV-1 (RF) in MT-2 cells; Table 2r): ++ (++=10 to 100 μg/mL)

CNc1cccc(CN2[C@H](Cc3ccccc3)[C@H](O)[C@@H](O)[C@@H](Cc3ccccc3)N(Cc3cccc(NC)c3)P2(=O)Oc2ccccc2)c1 (stereo partly shown) [28L]
Ki ([1]; Table 2r, read-out: Ki HPLC): 0.01 to 1 µM
IC90 (HIV-1 (RF) in MT-2 cells; Table 2r): ++ (++=10 to 100 μg/mL)

Cl.O=C(OCc1ccc(CN2C(=O)N(Cc3ccc(COC(=O)c4cccc(CN5CCOCC5)c4)cc3)[C@H](Cc3ccccc3)[C@H](O)[C@@H](O)[C@H]2Cc2ccccc2)cc1)c1cccc(CN2CCOCC2)c1 [29S]
Ki ([1]; Table 2s, read-out: Ki (HPLC)): > 1 µM
IC90 (HIV-1 (RF) in MT-2 cells; Table 2s): +++ (+++=<10 μg/mL)

Cl.O=C(OCc1ccc(CN2C(=O)N(Cc3ccc(COC(=O)c4ccc(CN5CCOCC5)cc4)cc3)[C@H](Cc3ccccc3)[C@H](O)[C@@H](O)[C@H]2Cc2ccccc2)cc1)c1ccc(CN2CCOCC2)cc1 [29T]
Ki ([1]; Table 2s, read-out: Ki (HPLC)): > 1 µM
IC90 (HIV-1 (RF) in MT-2 cells; Table 2s): +++ (+++=<10 μg/mL)

CCNCc1cccc(C(=O)OCc2ccc(CN3C(=O)N(Cc4ccc(COC(=O)c5cccc(CNCC)c5)cc4)[C@H](Cc4ccccc4)[C@H](O)[C@@H](O)[C@H]3Cc3ccccc3)cc2)c1.Cl [29U]
Ki ([1]; Table 2s, read-out: Ki (HPLC)): > 1 µM
IC90 (HIV-1 (RF) in MT-2 cells; Table 2s): +++ (+++=<10 μg/mL)

CCNCc1ccc(C(=O)OCc2ccc(CN3C(=O)N(Cc4ccc(COC(=O)c5ccc(CNCC)cc5)cc4)[C@H](Cc4ccccc4)[C@H](O)[C@@H](O)[C@H]3Cc3ccccc3)cc2)cc1.Cl [29V]
Ki ([1]; Table 2s, read-out: Ki (HPLC)): > 1 µM
IC90 (HIV-1 (RF) in MT-2 cells; Table 2s): +++ (+++=<10 μg/mL)

Cl.O=C(OCc1ccc(CN2C(=O)N(Cc3ccc(COC(=O)c4ccc(CNCCO)cc4)cc3)[C@H](Cc3ccccc3)[C@H](O)[C@@H](O)[C@H]2Cc2ccccc2)cc1)c1ccc(CNCCO)cc1 [29W]
Ki ([1]; Table 2s, read-out: Ki (HPLC)): 0.01 to 1 µM
IC90 (HIV-1 (RF) in MT-2 cells; Table 2s): +++ (+++=<10 μg/mL)

CN1CCN(Cc2cccc(C(=O)OCc3ccc(CN4C(=O)N(Cc5ccc(COC(=O)c6cccc(CN7CCN(C)CC7)c6)cc5)[C@H](Cc5ccccc5)[C@H](O)[C@@H](O)[C@H]4Cc4ccccc4)cc3)c2)CC1.Cl.Cl [29Y]
Ki ([1]; Table 2s, read-out: Ki (HPLC)): 0.01 to 1 µM
IC90 (HIV-1 (RF) in MT-2 cells; Table 2s): +++ (+++=<10 μg/mL)

COC(=O)c1cccc(CN2C(Cc3ccc(F)cc3)C(O)C(O)C(Cc3ccc(F)cc3)N(Cc3cccc(C(=O)OC)c3)S2(=O)=O)c1 (stereo not shown) [31A]
Ki [1, 2]: 0.01 to 1 µM
Ki [1, 3]: 0.01 to 1 µM
IC90 (HIV-1 (RF) in MT-2 cells; Table 2u): +++ (+++=<10 μg/mL)
IC90 (HIV-1 (RF) in MT-2 cells; Table 2u (second printing)): +++ (+++=<10 μg/mL)

COC(=O)c1ccc(CN2C(Cc3ccc(F)cc3)C(O)C(O)C(Cc3ccc(F)cc3)N(Cc3ccc(C(=O)OC)cc3)S2(=O)=O)cc1 (stereo not shown) [31B]
Ki [1, 2]: 0.01 to 1 µM
Ki [1, 3]: 0.01 to 1 µM
IC90 (HIV-1 (RF) in MT-2 cells; Table 2u): +++ (+++=<10 μg/mL)
IC90 (HIV-1 (RF) in MT-2 cells; Table 2u (second printing)): +++ (+++=<10 μg/mL)

O=S1(=O)N(Cc2cccc(CO)c2)C(Cc2ccc(F)cc2)C(O)C(O)C(Cc2ccc(F)cc2)N1Cc1cccc(CO)c1 (stereo not shown) [31C]
Ki [1, 2]: < 0.01 µM
Ki [1, 3]: < 0.01 µM
IC90 (HIV-1 (RF) in MT-2 cells; Table 2u): +++ (+++=<10 μg/mL)
IC90 (HIV-1 (RF) in MT-2 cells; Table 2u (second printing)): +++ (+++=<10 μg/mL)

O=S1(=O)N(Cc2ccc(CO)cc2)C(Cc2ccc(F)cc2)C(O)C(O)C(Cc2ccc(F)cc2)N1Cc1ccc(CO)cc1 (stereo not shown) [31D]
Ki [1, 2]: < 0.01 µM
Ki [1, 3]: < 0.01 µM
IC90 (HIV-1 (RF) in MT-2 cells; Table 2u): +++ (+++=<10 μg/mL)
IC90 (HIV-1 (RF) in MT-2 cells; Table 2u (second printing)): +++ (+++=<10 μg/mL)

O=S1(=O)N(Cc2ccccc2)C(Cc2ccccc2)C2OC2C(Cc2ccccc2)N1Cc1ccccc1 (stereo not shown) [31F]
Ki [1, 2]: > 1 µM
Ki [1, 3]: > 1 µM
IC90 (HIV-1 (RF) in MT-2 cells; Table 2u): ++/+ (The ++/+ is used in the cases where an IC90 was determined to be >50 μg/mL)
IC90 (HIV-1 (RF) in MT-2 cells; Table 2u (second printing)): ++/+ (The ++/+ is used in the cases where an IC90 was determined to be >50 μg/mL)

O=C1N(Cc2ccccc2)[C@H](Cc2ccccc2)C[C@@H](O)[C@@H](Cc2ccccc2)N1Cc1ccccc1 [Example 7AN]
Ki ([1]; read-out: HPLC Ki, Table 1d, lower part): < 0.01 µM
Mass Spec M + H (class symbols printed in this column) (HIV-1 (RF) in MT-2 cells; Table 1d, lower part): +++ (+++=<10 μg/mL)

O=C1N(CC2CC2)C(CCc2ccccc2)[C@@H](O)[C@@H](Cc2ccccc2)N1CC1CC1 (stereo partly shown) [Example 8H]
Ki [1, 4]: < 0.01 µM
IC90 (HIV-1 (RF) in MT-2 cells; [5]): < 10 µg/mL

O=C1N(Cc2cccc(O)c2)C(CCc2ccccc2)[C@@H](O)[C@@H](Cc2ccccc2)N1Cc1cccc(O)c1 (stereo partly shown) [Example 8I]
Ki [1, 4]: < 0.01 µM
IC90 (HIV-1 (RF) in MT-2 cells; [5]): < 10 µg/mL

O=C1N(CC2CC2)C(C(F)Cc2ccccc2)C[C@@H](Cc2ccccc2)N1CC1CC1 (stereo partly shown) [Example 8N]
Ki [1, 4]: > 1 µM
IC90 (HIV-1 (RF) in MT-2 cells; [5]): < 10 µg/mL

O=C1N(Cc2cccc(CNO)c2)C(Cc2ccccc2)C(O)C(O)C(Cc2ccccc2)N1Cc1cccc(CNO)c1 (stereo not shown) [Example 9B]
Ki [1, 6]: 0.01 to 1 µM
IC90 (HIV-1 (RF) in MT-2 cells; [7]): < 10 µg/mL

O=C1N(Cc2cccc(CNOCc3ccccc3)c2)C(Cc2ccccc2)C(O)C(O)C(Cc2ccccc2)N1Cc1cccc(CNOCc2ccccc2)c1 (stereo not shown) [Example 9F]
Ki ([1]; Table 2d, class symbols, read-out: HPLC K1): 0.01 to 1 µM
IC90 (HIV-1 (RF) in MT-2 cells; Table 2d, class symbols): + (+=>100 μg/mL)

CC(O)c1cccc(CN2C(=O)N(Cc3cccc(C(C)O)c3)C(Cc3ccccc3)C(O)C(O)C2Cc2ccccc2)c1 (stereo not shown) [Example 9H]
Ki [1, 6]: 0.01 to 1 µM
IC90 (HIV-1 (RF) in MT-2 cells; [7]): < 10 µg/mL

O=C1N(Cc2cccc(C=NCCO)c2)C(Cc2ccccc2)C(O)C(O)C(Cc2ccccc2)N1Cc1cccc(C=NCCO)c1 (stereo not shown) [Example 9J]
Ki [1, 6]: 0.01 to 1 µM
IC90 (HIV-1 (RF) in MT-2 cells; [7]): < 10 µg/mL
